Assay results: PMC8433837, “(+)-Usnic Acid as a Promising Candidate for a Safe and Stable Topical Photoprotective Agent” (Molecules, 2021)
Read-outs that look alike come from different tables or passages of the source.

Experiments:
[1] = skin-PAMPA permeability assay; type: in vitro ADME; conditions: for Papp at 2 µg/mL: concentration 2 µg/mL; for Papp at 4 µg/mL: concentration 4 µg/mL
Method: The skin-PAMPA (parallel artificial membrane permeability assay) method was used, as described previously, to determine the permeability of the tested usnic acid enantiomers. The model consists of a two-chamber PAMPA sandwich, with 96 wells each. Before the experiment, the top plate, with the lipid-impregnated skin-mimetic membrane, was hydrated overnight with the hydration solution (200 µL per well). The tested substances were added at concentrations of 2 and 4 µg/mL. Each experiment was repeated at least three times, using six replicates on each plate, and the results were presented as mean ± SD. The amount of permeated active compounds was determined by spectroscopic analysis (Multiskan GO microplate reader, Thermo Scientific MaxQ 4450, Waltham, MA, USA), with a wavelength of 290 nm. For the calibration curve, stock solutions in the range of 12.5–150 µg/mL were prepared.
The apparent permeability coefficients (Papp) were calculated using the following equation:(1) Papp=−ln(1−CA/Cequilibrium)/S×(1/VD+1/VA)×t where VD = donor volume, VA = acceptor volume, Cequilibrium = equilibrium concentration, Cequilibrium=CD×VD+CA×VA/VD+VA , CD = donor concentration, CA = acceptor concentration, S = membrane area, and t = incubation time (in seconds). Compounds with Papp < 1 × 10^−6 cm/s are classified as having low permeability, and those with Papp > 1 × 10^−6 cm/s as highly permeable compounds.

[2] = Ultraviolet spectroscopy in ethanol solutions; type: physicochemical; conditions: ethanol solution; for E1.1 (λmax): extinction at 1 cm path length and 1% concentration; for ‹E1.1mean›: mean specific extinction 290 to 400 nm
Method: Spectra with a scan range of 250–400 nm were recorded in 30 µM ethanol solutions, in 1 cm path length, with 1.5 mL quartz cuvettes on a U-2800 double-beam spectrophotometer (Hitachi, Tokyo, Japan) controlled using UV Solution version 2.2 software. The molar extinction coefficient at maximum absorption (εmax) of the tested compounds was determined in ethanol as the slope of the linear regression of absorbance vs. the concentration of the tested compound (from 10 to 50 µM). The E1,1 coefficient was calculated using the formula: E1,1=ε[L/mol cm]× 10[g/L]/Mg/mol] × 1[cm] where ‹E1,1›mean value is a mean value of the specific extinction over the spectral range from 290 to 400 nm.

[3] = test system: fibroblasts; design: method as in PMID 28095330; conditions: previous study; cited from earlier work
[4] = test system: HDF cells; design: method as in PMID 31282672; conditions: cited from earlier work
[5] = test system: HaCaT human skin keratinocytes; test: LDH viability test, HaCaT keratinocytes; type: cell-based
Method: (§1) Normal human skin keratinocytes (HaCaT), melanocytes (HEM), and fibroblasts (HDF) were grown at 37 °C in a 5% CO2 atmosphere, with relative humidity, on high-glucose DMEM (HaCaT, HDF), or melanocyte growth medium (HEM), supplemented with 10% fetal bovine serum (FBS) and antibiotics. Before the experiment, cells were seeded onto 96-well plates (1.5 × 10^4 cells/well) for 24 h. Then, the culture medium was replaced with the same medium, containing 2–100 µg/mL of the tested substances, and incubated for 24, 48, or 72 h. LDH release was measured as described previously. Briefly, a proper quantity of a reagent mixture was added to the cell supernatants, and after 30 min the absorbance was measured at 490 nm (the reference wavelength 600 nm) with a BioTek Synergy microplate reader (BioTek Instruments Inc., Winooski, VT, USA). Cytotoxicity was calculated as follows: ((Asample − Acontrol)/(Ama − Acontrol)) × 100; where Asample = the absorbance value for the cells incubated with the tested substances., Acontrol = the absorbance value for untreated, control cells (spontaneous LDH release), and Amax = the absorbance value in Triton-X100-lysed cells (maximum LDH release).
(§2) Each experiment was performed in triplicate, and the results were presented as mean ± SD.

[6] = test system: Human epidermal melanocytes (HEM); test: LDH viability test, HEM melanocytes; type: cell-based; conditions: Melanocyte, HEM melanocytes (remaining cell lines)
Method: as §1, §2

[7] = test system: dermal fibroblasts (HDF); test: LDH viability test, HDF fibroblasts; type: cell-based; conditions: Homo sapiens, Fibroblast, HDF fibroblasts (remaining cell lines)
Method: as §1, §2

[8] = test system: HaCaT cells; conditions: cited from earlier work
[9] = test system: HEM cells; design: method as in PMID 32092663; conditions: cited from earlier work
[10] = design: method as in PMID 28704942; conditions: different test for the evaluation; cited from earlier work
[11] = test system: irradiated guinea pigs; design: method as in earlier work; conditions: cited from earlier work
[12] = test system: human volunteers; design: method as in PMID 12468208; conditions: versus reference Nivea sun spray (SPF 5); cited from earlier work
[13] = design: method as in doi:10.1016/S1010-6030(98)00368-2; conditions: three-week exposure, 12 h/day natural sunlight + 12 h/day incubator with light source; cited from earlier work
[14] = design: method as in PMID 24238180; conditions: cited from earlier work

For `CC(=O)C1=C(O)C=C2Oc3c(C(C)=O)c(O)c(C)c(O)c3[C@@]2(C)C1=O` [(+)-usnic acid], the Papp at 2 µg/mL [1] was 7.53 ± 1.25 ×10⁻⁶ cm/s, the Papp at 4 µg/mL [1] was 7.9 ± 0.65 ×10⁻⁶ cm/s and the εmax [2] was 21 120 M^−1 cm^−1. For the same compound, the λmax [2] was 281 nm, the “E1.1 (λmax)” value [2] was 613 and the “‹E1.1mean›” value [2] was 76. The IC50 [3] was over 40 µg/mL, the IC50 ([4]; conversion of > 10 µM) was “about 3.5 µg/mL” and the IC50 ([4]; read-out: IC50) was over 10 µM.

In the case of `CC(=O)C1=C(O)C=C2Oc3c(C(C)=O)c(O)c(C)c(O)c3[C@]2(C)C1=O` [(−)-usnic acid], the Papp at 2 µg/mL [1] is reported as 7.46 ± 1.12 ×10⁻⁶ cm/s, the Papp at 4 µg/mL [1] is reported as 8.28 ± 1.33 ×10⁻⁶ cm/s and the IC50 ([5]; 48 h) is reported as 80.8 µg/mL. It also gave an IC50 ([5]; 72 h) of 70.1 µg/mL, an IC50 [6] of over 100 µg/mL and an IC50 [7] of over 100 µg/mL.

In the case of `CCCCC(CC)COC(=O)C(C#N)=C(c1ccccc1)c1ccccc1` (centres unmarked) [octocrylene, 2-ethylhexyl 2-cyano-3,3-diphenylacrylate, reference compound], the εmax [2] is reported as 13 650 M^−1 cm^−1, the λmax [2] is reported as 302 nm and the “E1.1 (λmax)” value [2] is reported as 378. The “‹E1.1mean›” value [2] was 141.

In the case of `CC(=O)c1c(O)c(C)c(O)c2c1OC1=CC(=O)C(C(C)=O)C(=O)C12C` (centres unmarked) [usnic acid, 2,6-diacetyl-7,9-dihydroxy-8,9b-dimethyl-1,3(2H,9bH)-dibenzofurandione], the IC50 ([8]; conversion of the µM value) is listed as “about 64 µg/mL”, the IC50 ([8]; read-out: IC50) is listed as 186 ± 4.8 µM and the IC50 ([9]; conversion of the µM value) is listed as “about 2.4 µg/mL”. For the same compound, the IC50 ([9]; read-out: IC50) was 6.9 µM, the “PF UVA” value [10] was 1.8 and the SPF [10] was 3.9. The “SPF as compared to the reference (homosalate)” value [11] was “two times higher”, the “effectiveness in sun protection” value [12] was “comparable to a reference Nivea sun spray” and the “stability of methanol solution exposed to light” value [13] was “wholly degraded”.

In the case of dimethicodiethylbenzalmalonate, the “E1,1 value” [14] is given as ~ 150.
